Data on 38 compounds can be found in the Kinase Knowledgebase extract (Sharma et al. 2016).

This experiment deals with CDK2 (UniProt P24941). The experiment is described as follows: Enzyme Assay.
With `O=C1NC(=O)C(c2cnc3cccnn23)=C1c1cn2c3c(cccc13)CN(C(=O)N1CCCCC1)CC2`, the IC50 (commonly the concentration needed to halve the response being measured) stood at 434 nM. For `O=C1NC(=O)C(c2cnc3ncccn23)=C1c1cn2c3c(cccc13)CNCC2`, the half-maximal inhibitory concentration (IC50) turned out to be 8760 nM. For the compound `CN(C)C(=O)N1CCn2cc(C3=C(c4cnn5ccccc45)C(=O)NC3=O)c3cccc(c32)C1`, the 50% inhibitory concentration (IC50) was 2200 nM. As for `O=C1NC(=O)C(c2cnc3ccccn23)=C1c1cn2c3c(cccc13)CNCC2`, the IC50 worked out at 756 nM.

`O=C1NC(=O)C(c2cnc3cnccn23)=C1c1cn2c3c(cccc13)CN(C(=O)N1CCOCC1)CC2` came in with a concentration for half-maximal inhibition (IC50) above 20200 nM. `O=C1NC(=O)C(c2cnc3ncccn23)=C1c1cn2c3c(cccc13)CN(C(=O)N1CCCCC1)CC2` came in with a half-maximal inhibitory concentration (IC50) above 20000 nM. `O=C1NC(=O)C(c2cnn3ccccc23)=C1c1cn2c3c(cccc13)CN(C(=O)N1CCOCC1)CC2` had an IC50 of 3030 nM. Then `CC(=O)N1CCn2cc(C3=C(c4cncc5ccoc45)C(=O)NC3=O)c3cccc(c32)C1`, with 8.1 nM.

Regarding `O=C1NC(=O)C(c2cnc3cnccn23)=C1c1cn2c3c(cccc13)CNCC2`, the half-inhibitory concentration (IC50) was 5580 nM. Then `O=C1NC(=O)C(c2cn3c4c(cccc24)CNCC3)=C1c1cccc2c1OCC2`, with 33 nM; and `O=C1NC(=O)C(c2cncc3ccoc23)=C1c1cn2c3c(cccc13)CNCC2`, with 6.4 nM.

On to `O=C1NC(=O)C(c2cn3c4c(cccc24)CNCC3)=C1c1cccc2occc12`, for which the IC50 stood at 205 nM. `O=C1NC(=O)C(c2cnc3cccnn23)=C1c1cn2c3c(cccc13)CNCC2` returned an IC50 of 67.2 nM. Compared with the last compound, the IC50 is about 3.1-fold lower. `O=C1NC(=O)C(c2cn3c4c(cccc24)CNCC3)=C1c1ccc2c(c1)OCO2` registered an IC50 of 1130 nM. `CC(=O)N1CCn2cc(C3=C(c4cccc5c4OCO5)C(=O)NC3=O)c3cccc(c32)C1` came in with an IC50 of 60 nM. This IC50 is about 19-fold lower than that of the compound before. For the compound `CC(C)C(=O)N1CCn2cc(C3=C(c4cnn5ccccc45)C(=O)NC3=O)c3cccc(c32)C1`, the IC50 came to 1630 nM.

In turn, `O=C1NC(=O)C(c2cncc3ccoc23)=C1c1cn2c3c(cccc13)CN(C(=O)N1CCCCC1)CC2` displayed a concentration for half-maximal inhibition (IC50) of 35.7 nM. `CC(C)C(=O)N1CCn2cc(C3=C(c4cnc5ccccn45)C(=O)NC3=O)c3cccc(c32)C1` returned an IC50 of 3560 nM. Turning to `Cn1ccc2c(C3=C(c4cn5c6c(cccc46)CNCC5)C(=O)NC3=O)cccc21`, the IC50 came to 363 nM. Against the preceding compound, the IC50 is about 9.8-fold lower. `O=C1NC(=O)C(c2cn3c4c(cccc24)CNCC3)=C1c1cccc2c1OCO2`: the 50% inhibitory concentration (IC50) turned out to be 91 nM. Compared with the last compound, the IC50 is about 4-fold lower.

In turn, `CCC(=O)N1CCn2cc(C3=C(c4cncc5ccoc45)C(=O)NC3=O)c3cccc(c32)C1` came in with a concentration for half-maximal inhibition (IC50) of 13 nM. With `O=C1NC(=O)C(c2cnc3ncccn23)=C1c1cn2c3c(cccc13)CN(C(=O)N1CCOCC1)CC2`, the half-maximal inhibitory concentration (IC50) is above 20100 nM. `O=C1NC(=O)C(c2cncc3ccoc23)=C1c1cn2c3c(cccc13)CN(C(=O)N1CCOCC1)CC2`: the IC50 was 39.2 nM. The compound `O=C1NC(=O)C(c2cnn3ccccc23)=C1c1cn2c3c(cccc13)CNCC2` registered an IC50 of 750 nM. `CC(=O)N1CCn2cc(C3=C(c4cccc5ccsc45)C(=O)NC3=O)c3cccc(c32)C1`: the IC50 was 76 nM. `CC(=O)N1CCn2cc(C3=C(c4cnc5ccccn45)C(=O)NC3=O)c3cccc(c32)C1` yielded a half-maximal inhibitory concentration (IC50) of 629 nM.

Consider `O=C1NC(=O)C(c2cccc3ccsc23)=C1c1cn2c3c(cccc13)CNCC2`, for which the 50% inhibitory concentration (IC50) is 90 nM. As for `CC(=O)N1CCn2cc(C3=C(c4cccc5ccoc45)C(=O)NC3=O)c3cccc(c32)C1`, the IC50 was determined as 10.5 nM. `CN(C)C(=O)N1CCn2cc(C3=C(c4cccc5ccoc45)C(=O)NC3=O)c3cccc(c32)C1` displayed an IC50 of 67.5 nM. `O=C1NC(=O)C(c2cnc3ccccn23)=C1c1cn2c3c(cccc13)CN(C(=O)C1CCOCC1)CC2` gave an IC50 of 5500 nM. With `CC(=O)N1CCn2cc(C3=C(c4cccc5c4OCC5)C(=O)NC3=O)c3cccc(c32)C1`, the half-maximal inhibitory concentration (IC50) amounted to 17.6 nM. The figure for `O=C1NC(=O)C(c2cnc3cnccn23)=C1c1cn2c3c(cccc13)CN(C(=O)N1CCCCC1)CC2` is above 20000 nM; for `O=C1NC(=O)C(c2cn3c4c(cccc24)CNCC3)=C1c1cccc2c1ccn2CCCO` it is 297 nM. Consider `CN(C)C(=O)N1CCn2cc(C3=C(c4cccc5c4OCO5)C(=O)NC3=O)c3cccc(c32)C1`, for which the IC50 was 445 nM. The IC50 values of the last two compounds are within 1.5-fold of each other. In the case of `O=C1NC(=O)C(c2cnc3ccncn23)=C1c1cn2c3c(cccc13)CN(C(=O)N1CCOCC1)CC2`, the 50% inhibitory concentration (IC50) is above 20000 nM.

For the compound `O=C1NC(=O)C(c2cccc3ccoc23)=C1c1cn2c3c(cccc13)CNCC2`, the IC50 was found to be 10.2 nM. In turn, `O=C1NC(=O)C(c2cnc3ccncn23)=C1c1cn2c3c(cccc13)CNCC2` gave an IC50 of 7590 nM.

The compound `CN(C)C(=O)N1CCn2cc(C3=C(c4cncc5ccoc45)C(=O)NC3=O)c3cccc(c32)C1` came in with an IC50 of 15.6 nM.
